Results: patent US3997662A, “Antibiotics and their preparation” (Rhone-Poulenc S.A., priority 1962, dated 1976)
Counter-ions that a name gives are not always drawn. Like-named read-outs stand apart in the source and are kept apart here.

How the values were obtained:
Solubility = format: physicochemical
numerous bacteria = assay: Bacteriostatic activity (general statement); format: cell-based; conditions: including antibiotic-resistant bacteria
From the text: For each organism, the lowest concentration of substance has been determined which, under the defined conditions, prevents all visible development in an appropriate nutritive broth. The results of various determinations are shown in Table VI, wherein the minimal bacteriostatic concentrations are expressed as micrograms of substance per cubic centimeter of experimental medium.

[1] = test system: transplantable tumours in the mouse; assay: Anti-cancer activity (general statement)
Klebsiella pneumoniae = assay: Activity by turbidimetric estimation against a 9865 RP control; format: cell-based; conditions: purified product; units per mg, Klebsiella pneumoniae growth inhibition
From the text: The following non-limitative Examples illustrate the invention. […] This activity is expressed in units (u) per mg. for solid products and in units per cc. for solutions. (The unit is defined as the smallest quantity of product which, dissolved in 1 cc. of an appropriate medium, inhibits the growth of Klebsiella pneumoniae under the conditions in question.)

Structure (SMILES) | solubility in chloroform (Solubility; chloroform) | solubility in water (Solubility) | bacteriostatic activity (numerous bacteria) | anti-cancer activity [1] | anti-cancer activity ([1]; listed as 13057 R.P.) | activity (Klebsiella pneumoniae) [μ/mg.] | solubility in benzene (Solubility; benzene) | solubility in diethyl ether (Solubility; diethyl ether) | solubility in ketones (Solubility; ketones)
COc1cccc2c1C(=O)c1c(O)c3c(c(O)c1C2=O)C[C@@](O)(C(C)=O)C[C@@H]3O[C@H]1C[C@H](N)[C@H](O)[C@H](C)O1 [13057 RP hydrochloride] | slightly soluble | soluble |  |  |  |  |  |  | 
COc1cccc2c1C(=O)c1c(O)c3c(c(O)c1C2=O)C[C@@](O)(C(C)=O)C[C@@H]3O[C@H]1C[C@H](N)[C@H](O)[C@H](C)O1 [13057 RP] |  | very slightly soluble | exerted against numerous bacteria | most interesting of the new antibiotics | very pronounced | 160 | particularly insoluble | particularly insoluble | very slightly soluble
